In PubChem BioAssay (NCI):
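1) Cells in 96-well plates. 2) Compound, 48 h, 5 concentrations. 3) Linear interpolation between surrounding doses. 4) Unreached endpoint = highest concentration. GI50 is the concentration that inhibits growth by half. TGI marks complete inhibition of growth.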

What was measured:
Experiment in all cases: DTP human tumour cell line panel, 48 h
MDA-MB-435 = system: MDA-MB-435
SF-268 CNS = system: SF-268 CNS
786-0 renal = system: 786-0 renal
RPMI-8226 leukemia = system: RPMI-8226 leukemia
A549 NSCLC = system: A549 NSCLC
OVCAR-5 ovarian = system: OVCAR-5 ovarian
UACC-257 melanoma = system: UACC-257 melanoma
HS 578T breast = system: HS 578T breast
SF-539 CNS = system: SF-539 CNS
BT-549 breast = system: BT-549 breast
CAKI-1 renal = system: CAKI-1 renal
HOP-92 NSCLC = system: HOP-92 NSCLC
PC-3 prostate = system: PC-3 prostate
COLO 205 colon = system: COLO 205 colon
HCT-15 colon = system: HCT-15 colon
K-562 leukemia = system: K-562 leukemia
HOP-62 NSCLC = system: HOP-62 NSCLC
U251 CNS = system: U251 CNS
KM12 colon = system: KM12 colon
RXF 393 renal = system: RXF 393 renal
OVCAR-8 ovarian = system: OVCAR-8 ovarian
SK-MEL-2 melanoma = system: SK-MEL-2 melanoma
DU-145 prostate = system: DU-145 prostate
SN12C renal = system: SN12C renal
A498 renal = system: A498 renal
SK-MEL-28 melanoma = system: SK-MEL-28 melanoma
SW-620 colon = system: SW-620 colon
HT29 colon = system: HT29 colon
EKVX NSCLC = system: EKVX NSCLC
SK-OV-3 ovarian = system: SK-OV-3 ovarian
NCI/ADR-RES ovarian = system: NCI/ADR-RES ovarian
SNB-75 CNS = system: SNB-75 CNS
MCF7 breast = system: MCF7 breast
LOX IMVI melanoma = system: LOX IMVI melanoma
MDA-MB-231 breast = system: MDA-MB-231 breast
T-47D breast = system: T-47D breast
OVCAR-4 ovarian = system: OVCAR-4 ovarian
M14 melanoma = system: M14 melanoma
ACHN renal = system: ACHN renal
SR leukemia = system: SR leukemia
SNB-19 CNS = system: SNB-19 CNS
NCI-H23 lung = system: NCI-H23 lung
TK-10 renal = system: TK-10 renal
NCI-H226 lung = system: NCI-H226 lung
UO-31 renal = system: UO-31 renal
NCI-H460 lung = system: NCI-H460 lung
IGROV1 ovarian = system: IGROV1 ovarian
NCI-H522 lung = system: NCI-H522 lung
SK-MEL-5 melanoma = system: SK-MEL-5 melanoma
MOLT-4 leukemia = system: MOLT-4 leukemia
SF-295 CNS = system: SF-295 CNS
HCC-2998 colon = system: HCC-2998 colon
HL-60(TB) leukemia = system: HL-60(TB) leukemia
UACC-62 melanoma = system: UACC-62 melanoma
HCT-116 colon = system: HCT-116 colon

Cc1[nH]c2ccccc2c1CCNCc1ccc(/C=C/C(=O)NO)cc1
GI50 (MDA-MB-435): < 10 nM | TGI (MDA-MB-435): 50.2 nM | GI50 (SF-268 CNS): 15.7 nM | TGI (SF-268 CNS): 60.5 nM | GI50 (786-0 renal): 27.5 nM | TGI (786-0 renal): 490 nM | GI50 (RPMI-8226 leukemia): < 12.3 nM | TGI (RPMI-8226 leukemia): 595 nM | GI50 (A549 NSCLC): 15.8 nM | TGI (A549 NSCLC): 101 nM | GI50 (OVCAR-5 ovarian): < 10 nM | TGI (OVCAR-5 ovarian): 91.1 nM | GI50 (UACC-257 melanoma): < 10 nM | TGI (UACC-257 melanoma): 44.7 nM | GI50 (HS 578T breast): < 10 nM | TGI (HS 578T breast): 55.4 nM | GI50 (SF-539 CNS): 24.9 nM | TGI (SF-539 CNS): 2110 nM | GI50 (BT-549 breast): 213 nM | TGI (BT-549 breast): 12300 nM | GI50 (CAKI-1 renal): 19.3 nM | TGI (CAKI-1 renal): 52.4 nM | GI50 (HOP-92 NSCLC): < 10 nM | TGI (HOP-92 NSCLC): < 10 nM | GI50 (PC-3 prostate): < 11.4 nM | TGI (PC-3 prostate): 2860 nM | GI50 (COLO 205 colon): < 10.8 nM | TGI (COLO 205 colon): 21.8 nM | GI50 (HCT-15 colon): 67.6 nM | TGI (HCT-15 colon): 12900 nM | GI50 (K-562 leukemia): < 10 nM | TGI (K-562 leukemia): 83.3 nM | GI50 (HOP-62 NSCLC): < 12.2 nM | TGI (HOP-62 NSCLC): 69.7 nM | GI50 (U251 CNS): < 10.8 nM | TGI (U251 CNS): 33.3 nM | GI50 (KM12 colon): 19.3 nM | TGI (KM12 colon): 112 nM | GI50 (RXF 393 renal): < 10.4 nM | TGI (RXF 393 renal): 25 nM | GI50 (OVCAR-8 ovarian): < 10 nM | TGI (OVCAR-8 ovarian): 178 nM | GI50 (SK-MEL-2 melanoma): < 12 nM | TGI (SK-MEL-2 melanoma): 53.2 nM | GI50 (DU-145 prostate): < 10 nM | TGI (DU-145 prostate): 53.2 nM | GI50 (SN12C renal): 27.2 nM | TGI (SN12C renal): 317 nM | GI50 (A498 renal): < 10 nM | TGI (A498 renal): 22 nM | GI50 (SK-MEL-28 melanoma): < 11.5 nM | TGI (SK-MEL-28 melanoma): 72.8 nM | GI50 (SW-620 colon): < 10 nM | TGI (SW-620 colon): 21.9 nM | GI50 (HT29 colon): < 10 nM | TGI (HT29 colon): 10600 nM | GI50 (EKVX NSCLC): 23 nM | TGI (EKVX NSCLC): 1500 nM | GI50 (SK-OV-3 ovarian): 13.4 nM | TGI (SK-OV-3 ovarian): 41.2 nM | GI50 (NCI/ADR-RES ovarian): 21.1 nM | TGI (NCI/ADR-RES ovarian): 267 nM | GI50 (SNB-75 CNS): < 14.7 nM | TGI (SNB-75 CNS): 2800 nM | GI50 (MCF7 breast): < 10 nM | TGI (MCF7 breast): 795 nM | GI50 (LOX IMVI melanoma): 12.8 nM | TGI (LOX IMVI melanoma): 30 nM | GI50 (MDA-MB-231 breast): 28.4 nM | TGI (MDA-MB-231 breast): 162 nM | GI50 (T-47D breast): < 10 nM | TGI (T-47D breast): 34.4 nM | GI50 (OVCAR-4 ovarian): 15 nM | TGI (OVCAR-4 ovarian): 58.5 nM | GI50 (M14 melanoma): < 11.6 nM | TGI (M14 melanoma): 111 nM | GI50 (ACHN renal): 18.3 nM | TGI (ACHN renal): 71.4 nM | GI50 (SR leukemia): < 10 nM | GI50 (SNB-19 CNS): 24.4 nM | TGI (SNB-19 CNS): 323 nM | GI50 (NCI-H23 lung): 24.6 nM | TGI (NCI-H23 lung): 150 nM | GI50 (TK-10 renal): < 11.1 nM | TGI (TK-10 renal): 45.3 nM | GI50 (NCI-H226 lung): 30.5 nM | TGI (NCI-H226 lung): 172 nM | GI50 (UO-31 renal): 12.9 nM | TGI (UO-31 renal): 63.7 nM | GI50 (NCI-H460 lung): < 10 nM | TGI (NCI-H460 lung): 838 nM | GI50 (IGROV1 ovarian): 16.8 nM | TGI (IGROV1 ovarian): 72.1 nM | GI50 (NCI-H522 lung): < 10 nM | TGI (NCI-H522 lung): 32.4 nM | GI50 (SK-MEL-5 melanoma): < 11.3 nM | TGI (SK-MEL-5 melanoma): 27.5 nM | GI50 (MOLT-4 leukemia): < 10 nM | GI50 (SF-295 CNS): 14.6 nM | TGI (SF-295 CNS): 56.3 nM | GI50 (HCC-2998 colon): 12.1 nM | TGI (HCC-2998 colon): 35.3 nM | GI50 (HL-60(TB) leukemia): < 10 nM | TGI (HL-60(TB) leukemia): 3160 nM | GI50 (UACC-62 melanoma): < 10 nM | TGI (UACC-62 melanoma): 22.9 nM | GI50 (HCT-116 colon): < 10 nM | TGI (HCT-116 colon): 14.2 nM
